The record followed here is US20070275911A1, “Targeted Drug-Formaldehyde Conjugates and Methods of Making and Using the Same” (priority 2003, published 2007).

The structures appear in SMILES notation. Like-named read-outs stand apart in the source and are kept apart here.

The IC50 is the concentration at which inhibition is half-maximal. Lower therefore signals greater potency in that assay.

In experiment [1] the test system is AR-GFP receptor. It is filed as cell-based. As to conditions: for inhibition of the action of 1.0 nM Mibolerone on AR-GFP: co-treatment with 1.0 nM Mibolerone. The method, then:
PC3 cells were, therefore, grown in 6 well plates and transiently transfected with a plasmid containing the AR-GFP construct obtained from Dr. Arun Roy (UTHSC; San Antonio, Tex.).
This cell suspension was dispensed in 2 mL aliquots into 6-well tissue culture plates. […] To each solution was added 2 μL of a 800 μg/mL solution of the pEGFP-C2 rcAR plasmid in Millipore water. After gentle mixing, the transfection cocktail was allowed to incubate at room temperature for 40 min. […] The growth medium was again replaced with 1 mL of phenol red-free RPMI supplemented with dextran-coated charcoal-stripped FBS. Candidate AR-GFP expressing cells in each well were identified and marked before an appropriate concentrations of the test compounds were added in 10 μL of sterile DMSO.

The target in experiment [2] is T1, human AR (Homo sapiens, UniProt P10275).
T1 construct: expressed in transfected cells; host or cells: PC3/AR cells (gift of Dr. Kerry Burnstein, University of Miami); cytosolic fraction of sonicated lysate
T1 sequence (P10275 1-920): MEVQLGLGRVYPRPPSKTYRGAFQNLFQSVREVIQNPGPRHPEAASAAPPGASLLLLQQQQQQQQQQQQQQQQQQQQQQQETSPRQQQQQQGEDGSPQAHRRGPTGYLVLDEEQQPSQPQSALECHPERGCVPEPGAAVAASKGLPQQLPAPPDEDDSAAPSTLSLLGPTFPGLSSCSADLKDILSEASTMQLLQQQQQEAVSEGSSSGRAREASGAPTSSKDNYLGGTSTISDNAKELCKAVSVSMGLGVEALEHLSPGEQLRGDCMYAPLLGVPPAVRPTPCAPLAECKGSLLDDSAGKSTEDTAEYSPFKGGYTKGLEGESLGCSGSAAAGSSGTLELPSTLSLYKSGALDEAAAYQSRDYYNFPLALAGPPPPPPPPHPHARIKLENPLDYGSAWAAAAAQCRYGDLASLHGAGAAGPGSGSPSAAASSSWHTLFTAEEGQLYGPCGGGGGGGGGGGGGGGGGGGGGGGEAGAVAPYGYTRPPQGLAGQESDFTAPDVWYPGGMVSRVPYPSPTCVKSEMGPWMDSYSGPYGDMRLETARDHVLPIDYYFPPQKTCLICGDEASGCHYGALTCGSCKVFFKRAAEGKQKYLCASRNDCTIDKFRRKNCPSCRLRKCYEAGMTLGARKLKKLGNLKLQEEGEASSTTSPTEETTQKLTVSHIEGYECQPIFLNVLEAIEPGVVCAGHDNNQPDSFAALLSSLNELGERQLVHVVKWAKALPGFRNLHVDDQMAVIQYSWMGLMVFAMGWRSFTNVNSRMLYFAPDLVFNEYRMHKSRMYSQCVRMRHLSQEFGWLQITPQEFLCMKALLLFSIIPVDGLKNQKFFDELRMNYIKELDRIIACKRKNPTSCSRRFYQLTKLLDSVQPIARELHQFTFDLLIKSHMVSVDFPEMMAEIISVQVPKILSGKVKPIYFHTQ
The experiment in a line: biochemical. The experiment is classed as binding.

Setting [3] is: vs 1.0 nM 3H-Mibolerone, PC3/AR cell lysate, 4° C. (Table 4, Example 3 numbering).
Setting [4] is: vs 1.0 nM 3H-Mibolerone, PC3/AR cell lysate, 4° C., 30 min (Table 3, Example 2 numbering).
The mark [5] stands for this setting: relative binding affinity (Table 4, Example 3 numbering).

As for `CCCC(=O)OCOc1ccc(COCC#CCN2C(=O)N(c3ccc(C#N)c(C(F)(F)F)c3)C(=O)C2(C)C)cc1C(N)=O` [6b], the “nuclear translocation of AR-GFP” value in experiment [1] (concentration not given) is on record as “causing nuclear translocation of the AR upon binding”.
As to `CC1(C)C(=O)N(c2ccc(C#N)c(C(F)(F)F)c2)C(=O)N1CCOCCOCCOCc1ccc(O)c(C(N)=O)c1` [8b, 5-[2-(2-{2-[3-(4-Cyano-3-trifluoromethyl-phenyl)-5,5-dimethyl-2,4-dioxo-imidazolidin-1-yl]-ethoxy}-ethoxy)-ethoxymethyl]-2-hydroxy-benzamide], the IC50 in experiment [2] (setting [3]) and in experiment [2] (setting [4]) was 332 nM each time.
In the case of `C[C@@H]1CC2=CC(=O)CC[C@@H]2[C@H]2CC[C@@]3(C)[C@@H](CC[C@]3(C)O)[C@@H]21` [Mibolerone, reference compound], the “nuclear translocation of AR-GFP” value in experiment [1] (1.0 nM) was “causes nuclear translocation of the AR-GFP receptor”.
In experiment [2] (setting [4]), `CC1(C)C(=O)N(c2ccc(C#N)c(C(F)(F)F)c2)C(=O)N1CC#CCOCc1ccc(O)c(C(N)=O)c1` [8c, 5-{4-[3-(4-Cyano-3-trifluoromethyl-phenyl)-5,5-dimethyl-2,4-dioxo-imidazolidin-1-yl]-but-2-ynyloxymethyl}-2-hydroxy-benzamide] displayed an IC50 of 49 nM.
As to `CC1(C)NC(=O)N(c2ccc(C#N)c(C(F)(F)F)c2)C1=O` [2f, 4-(4,4-Dimethyl-2,5-dioxo-imidazolidin-1-yl)-2-trifluoromethylbenzonitrile], in experiment [1] (concentration not given), the “nuclear translocation of AR-GFP” value is “induce partial translocation”. Besides, in experiment [2], 6 nM corresponded to half-maximal inhibition (IC50), the RBA was 150 and the “RBA as fraction of nilutamide binding” value is listed as 150%.
For `CC1(C)C(=O)N(c2ccc(C#N)c(C(F)(F)F)c2)C(=O)N1CCOCCN1CCN(CCOCc2ccc(O)c(C(N)=O)c2)CC1` [12b], the “inhibition of the action of 1.0 nM Mibolerone on AR-GFP” value in experiment [1] is reported as “not capable of inhibiting the action of 1.0 nM Mibolerone”. Moreover, the “nuclear translocation of AR-GFP” value in experiment [1] (concentration not given) was “does not instigate translocation”. The RBA in experiment [2] and in experiment [2] (setting [5]) was 3 throughout. The IC50 in experiment [2] (setting [3]) and in experiment [2] (setting [4]) was 346 nM throughout.
In the case of `CC1(C)C(=O)N(c2ccc(C#N)c(C(F)(F)F)c2)C(=O)N1CCCCN1CCN(CCOCc2ccc(O)c(C(N)=O)c2)CC1` [12a, 5-[2-(4-{4-[3-(4-Cyano-3-trifluoromethyl-phenyl)-5,5-dimethyl-2,4-dioxo-imidazolidin-1-yl]-butyl}-piperazin-1-yl)-ethoxymethyl]-2-hydroxy-benzamide], the “inhibition of the action of 1.0 nM Mibolerone on AR-GFP” value in experiment [1] is “not capable of inhibiting the action of 1.0 nM Mibolerone”. Moreover, in experiment [1] (concentration not given), the “nuclear translocation of AR-GFP” value was “does not instigate translocation”. Moreover, the RBA in experiment [2] and in experiment [2] (setting [5]) was below 1 throughout. This molecule also yielded an IC50 in experiment [2] (setting [3]) above 1000 nM.
For the molecule `CC1(C)C(=O)N(c2ccc(C#N)c(C(F)(F)F)c2)C(=O)N1CCOCCOCc1ccc(O)c(C(N)=O)c1` [8a, 5-(2-{2-[3-(4-Cyano-3-trifluoromethyl-phenyl)-5,5-dimethyl-2,4-dioxo-imidazolidin-1-yl]-ethoxy}-ethoxymethyl)-2-hydroxy-benzamide], the IC50 in experiment [2] (setting [3]) and in experiment [2] (setting [4]) was 77 nM throughout.
